These results are taken from patent US8772287B2, “Pyrimidinyl and 1,3,5-triazinyl benzimidazole sulfonamides and their use in cancer therapy” (VetDC, Inc., priority 2009, dated 2014).

The test system of one data set is NZB5. As to the kind of experiment: Cellular growth inhibition, NZB5 (3H-thymidine incorporation). It counts as cell-based, human. The note with it: five days incubation, 3H-thymidine over the last 6 hrs, read-out: Cell IC50 NZB5. The protocol: (§1) The compounds were evaluated against two early passage human cell lines NZB5 and NZOV9 (Marshall et al., Oncol. Res. 2004, 14, 297). The cells were grown in ITS medium (α-modified minimal essential medium supplemented insulin, transferrin, selenite, and 5% fetal bovine serum) and grown on 96-well tissue culture plates under an atmosphere of 5% O2, 5% CO2, and 90% N2. Individual wells contained 500-1,000 cells (depending on the growth rate) in a volume of 150 μL. Compounds were added at 10-fold concentration steps to a maximum of 20 μM and plates were incubated for five days, with ^3H-thymidine being added over the last 6 hrs. Cells were harvested and incorporated radioactivity measured. Duplicate samples were analyzed for each compound dose with multiple control samples.

Another data set deals with p110δ/p85 (Homo sapiens, UniProt O00329). The data set is described as follows: Inhibition of isolated enzyme p110δ/p85 (lipid kinase, [γ-33P]ATP, TLC). It counts as biochemical. The note with it: recombinant enzyme, 100 μM ATP, nine concentrations, average of two experiments. The protocol: (§2) Compounds were evaluated for their ability to inhibit Class I PI 3-kinase enzymes p110δ/p85, p110α/p85, and p110β/p85. Reaction mixtures comprising 0.1 μg of a recombinant enzyme, 10 μg of L-α-phosphatidylinositol, and 2× Lipid Kinase Buffer (40 mM Tris-HCl, pH 7.4, 200 mM NaCl, 1 mM EDTA), which contains either DMSO only as a control or the test compound in DMSO (the final DMSO concentration is 1%), were activated by the addition of an ATP mix (5 mM MgCl2, 100 μM ATP, and 0.1 μL [γ^33P]ATP). Reactions were incubated at room temperature for 1 hr, and then stopped by the addition of 1M HCl. The lipids were then extracted using a two step procedure. Firstly, 200 μL of chloroform/methanol (1:1) was added, the biphasic reactions mixed and centrifuged briefly, and the inorganic phase was removed and discarded. Following this, 80 μL of methanol:HCl (1:1) was added and the same procedure followed. The organic phase (70 μL) was then transferred to a clean 1.6 mL tube and the reactions were dried using a Speedvac, with no heating, for 30 min. The reactions were spotted onto TLC plates (Merck Ltd) and developed for 1 hr in propanol-1:2 M acetic acid (13:7). The TLC plates were then dried at room temperature and quantified using a phosphorimager (StormImager, Amersham). Nine compound concentrations were used for each test compound to determine its IC50 value. Each experiment was performed twice and the average IC50 value is used herein.
Sequence of p110δ/p85 (O00329 whole entry, species assumed): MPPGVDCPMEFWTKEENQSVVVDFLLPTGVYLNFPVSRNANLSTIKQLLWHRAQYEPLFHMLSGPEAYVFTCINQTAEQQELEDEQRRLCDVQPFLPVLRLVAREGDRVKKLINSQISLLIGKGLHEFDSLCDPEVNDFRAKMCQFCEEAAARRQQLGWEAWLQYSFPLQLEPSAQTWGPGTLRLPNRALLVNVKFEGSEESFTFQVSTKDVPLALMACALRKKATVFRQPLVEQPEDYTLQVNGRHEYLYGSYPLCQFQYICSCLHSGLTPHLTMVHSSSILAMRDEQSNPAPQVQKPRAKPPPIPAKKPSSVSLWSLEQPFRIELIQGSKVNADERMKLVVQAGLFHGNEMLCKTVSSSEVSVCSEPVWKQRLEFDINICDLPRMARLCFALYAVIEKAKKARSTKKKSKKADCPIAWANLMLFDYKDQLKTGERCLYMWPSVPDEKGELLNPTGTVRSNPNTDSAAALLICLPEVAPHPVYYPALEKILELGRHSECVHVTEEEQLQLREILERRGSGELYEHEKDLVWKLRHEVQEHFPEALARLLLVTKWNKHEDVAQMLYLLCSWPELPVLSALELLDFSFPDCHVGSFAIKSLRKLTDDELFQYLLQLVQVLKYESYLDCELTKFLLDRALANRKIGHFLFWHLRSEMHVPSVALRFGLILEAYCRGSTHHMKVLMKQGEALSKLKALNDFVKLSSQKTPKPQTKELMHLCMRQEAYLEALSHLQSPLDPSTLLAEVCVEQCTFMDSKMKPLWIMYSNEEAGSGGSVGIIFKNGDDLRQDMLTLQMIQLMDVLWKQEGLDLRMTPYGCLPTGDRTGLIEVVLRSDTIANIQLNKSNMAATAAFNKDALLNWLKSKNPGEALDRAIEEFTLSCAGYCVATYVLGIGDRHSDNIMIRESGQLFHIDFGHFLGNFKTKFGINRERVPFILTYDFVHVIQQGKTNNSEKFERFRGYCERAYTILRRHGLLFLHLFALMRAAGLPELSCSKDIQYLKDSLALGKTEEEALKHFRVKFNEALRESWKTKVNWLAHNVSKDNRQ
Sequence of p110δ/p85 (P27986 whole entry partner, species assumed): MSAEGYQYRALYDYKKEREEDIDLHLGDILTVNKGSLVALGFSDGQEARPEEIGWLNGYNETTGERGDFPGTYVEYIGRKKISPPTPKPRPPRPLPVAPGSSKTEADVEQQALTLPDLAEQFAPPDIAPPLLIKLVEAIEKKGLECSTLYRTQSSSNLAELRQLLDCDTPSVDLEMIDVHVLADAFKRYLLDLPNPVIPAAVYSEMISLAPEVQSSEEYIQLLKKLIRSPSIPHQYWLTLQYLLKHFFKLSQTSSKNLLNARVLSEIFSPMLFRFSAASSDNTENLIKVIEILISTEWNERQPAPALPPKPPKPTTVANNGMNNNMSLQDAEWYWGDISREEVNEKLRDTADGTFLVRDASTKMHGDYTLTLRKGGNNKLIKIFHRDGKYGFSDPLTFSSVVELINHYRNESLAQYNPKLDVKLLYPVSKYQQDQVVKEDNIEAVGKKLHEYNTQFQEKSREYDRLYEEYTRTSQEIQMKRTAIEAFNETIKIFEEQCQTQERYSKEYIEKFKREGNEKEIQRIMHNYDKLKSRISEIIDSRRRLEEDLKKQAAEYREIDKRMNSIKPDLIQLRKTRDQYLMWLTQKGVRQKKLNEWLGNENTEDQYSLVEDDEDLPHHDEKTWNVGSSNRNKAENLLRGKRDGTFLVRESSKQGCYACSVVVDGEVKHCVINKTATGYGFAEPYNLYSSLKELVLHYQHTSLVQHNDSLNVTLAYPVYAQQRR

In the next data set the test system is NZOV9. The data set is described as follows: Cellular growth inhibition, NZOV9 (3H-thymidine incorporation). It counts as cell-based, human. As to conditions: five days incubation, 3H-thymidine over the last 6 hrs, read-out: Cell IC50 NZOV9. The protocol: as §1
On the technique in general: Incorporation of labelled thymidine or its analogues reports DNA synthesis.

The next data set deals with p110α/p85 (Homo sapiens, UniProt P42336). The data set is described as follows: Inhibition of isolated enzyme p110α/p85 (lipid kinase, [γ-33P]ATP, TLC). The note with it: recombinant enzyme, 100 μM ATP, nine concentrations, average of two experiments. Type of data set: biochemical. The protocol: as §2
Sequence of p110α/p85 (P42336 whole entry): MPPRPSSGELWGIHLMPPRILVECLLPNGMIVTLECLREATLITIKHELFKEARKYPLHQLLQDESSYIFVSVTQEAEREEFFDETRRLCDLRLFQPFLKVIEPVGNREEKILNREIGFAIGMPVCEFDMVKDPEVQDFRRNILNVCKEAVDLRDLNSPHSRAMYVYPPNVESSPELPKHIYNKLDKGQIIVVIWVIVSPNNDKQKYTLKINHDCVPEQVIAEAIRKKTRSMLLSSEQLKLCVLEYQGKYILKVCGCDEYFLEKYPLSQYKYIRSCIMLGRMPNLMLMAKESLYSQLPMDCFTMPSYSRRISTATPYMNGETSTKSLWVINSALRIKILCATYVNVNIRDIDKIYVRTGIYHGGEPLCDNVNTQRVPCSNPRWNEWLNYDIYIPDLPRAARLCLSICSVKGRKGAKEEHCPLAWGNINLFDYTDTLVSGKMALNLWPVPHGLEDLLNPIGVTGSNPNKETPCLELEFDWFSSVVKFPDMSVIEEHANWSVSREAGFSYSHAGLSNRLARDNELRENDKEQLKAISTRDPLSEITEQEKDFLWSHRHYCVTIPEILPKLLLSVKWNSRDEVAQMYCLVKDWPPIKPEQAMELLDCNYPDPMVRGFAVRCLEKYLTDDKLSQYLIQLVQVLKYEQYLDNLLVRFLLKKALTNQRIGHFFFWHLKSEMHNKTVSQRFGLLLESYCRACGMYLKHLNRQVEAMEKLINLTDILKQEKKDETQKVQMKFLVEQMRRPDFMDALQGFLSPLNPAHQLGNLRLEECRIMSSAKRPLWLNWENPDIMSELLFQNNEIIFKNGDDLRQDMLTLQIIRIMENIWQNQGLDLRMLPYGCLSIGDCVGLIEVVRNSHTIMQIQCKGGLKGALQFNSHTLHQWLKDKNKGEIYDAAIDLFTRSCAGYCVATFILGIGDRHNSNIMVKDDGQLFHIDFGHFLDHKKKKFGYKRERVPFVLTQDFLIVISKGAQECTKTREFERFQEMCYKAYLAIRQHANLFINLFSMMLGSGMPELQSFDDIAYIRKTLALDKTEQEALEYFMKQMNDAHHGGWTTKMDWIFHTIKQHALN
Sequence of p110α/p85 (P27986 whole entry partner): as the sequence (P27986 whole entry partner, species assumed) above
In the next data set the target is p110β/p85 (Homo sapiens, UniProt P42338). As to the kind of experiment: Inhibition of isolated enzyme p110β/p85 (lipid kinase, [γ-33P]ATP, TLC). It counts as biochemical. The note with it: recombinant enzyme, 100 μM ATP, nine concentrations, average of two experiments. The protocol: as §2
Sequence of p110β/p85 (P42338 whole entry, species assumed): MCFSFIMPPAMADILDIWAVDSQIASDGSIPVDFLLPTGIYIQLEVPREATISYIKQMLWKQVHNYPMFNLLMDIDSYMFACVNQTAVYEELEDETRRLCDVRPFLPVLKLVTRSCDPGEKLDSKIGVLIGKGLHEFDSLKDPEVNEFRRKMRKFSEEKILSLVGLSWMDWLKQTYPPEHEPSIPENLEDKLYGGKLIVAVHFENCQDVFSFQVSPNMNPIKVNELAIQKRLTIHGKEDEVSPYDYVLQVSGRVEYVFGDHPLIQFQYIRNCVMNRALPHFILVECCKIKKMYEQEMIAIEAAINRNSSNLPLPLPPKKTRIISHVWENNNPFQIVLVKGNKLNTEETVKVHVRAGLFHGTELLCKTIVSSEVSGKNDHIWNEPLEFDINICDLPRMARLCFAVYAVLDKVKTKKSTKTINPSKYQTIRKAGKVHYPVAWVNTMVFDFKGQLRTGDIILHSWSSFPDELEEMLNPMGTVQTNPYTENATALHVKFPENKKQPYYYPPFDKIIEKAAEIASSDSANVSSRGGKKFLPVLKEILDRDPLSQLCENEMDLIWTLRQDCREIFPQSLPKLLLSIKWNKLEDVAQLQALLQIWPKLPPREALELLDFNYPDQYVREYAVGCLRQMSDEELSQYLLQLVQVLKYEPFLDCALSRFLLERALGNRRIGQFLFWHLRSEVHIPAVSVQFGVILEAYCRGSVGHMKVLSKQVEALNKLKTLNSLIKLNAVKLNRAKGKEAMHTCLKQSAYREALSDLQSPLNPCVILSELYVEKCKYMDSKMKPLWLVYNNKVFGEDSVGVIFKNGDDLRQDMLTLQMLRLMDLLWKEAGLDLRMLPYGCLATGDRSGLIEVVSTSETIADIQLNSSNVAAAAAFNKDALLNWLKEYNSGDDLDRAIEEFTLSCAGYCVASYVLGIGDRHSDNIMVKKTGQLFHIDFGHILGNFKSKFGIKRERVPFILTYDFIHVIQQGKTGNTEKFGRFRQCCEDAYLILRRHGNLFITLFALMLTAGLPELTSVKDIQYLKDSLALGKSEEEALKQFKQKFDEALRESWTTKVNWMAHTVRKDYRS
Sequence of p110β/p85 (P27986 whole entry partner, species assumed): as the sequence (P27986 whole entry partner, species assumed) above
The next data set deals with PI3K. As to conditions: reversible inhibitors, literature; cited from earlier work.
The test system of another data set is human tumor xenografts. As to conditions: mouse, in vivo; cited from earlier work.

Like-named read-outs stand apart in the source and are kept apart here.

One may read the IC50 as the concentration that gives 50% inhibition. Broadly, the melting point is the temperature, or range, at which the solid turns liquid. Consider `COc1cccc2c1nc(C(F)F)n2-c1nc(Nc2ccc(NS(C)(=O)=O)nc2)nc(N2CCOCC2)n1` [Example 100, N-(5-{[4-[2-(difluoromethyl)-4-methoxy-1H-benzimidazol-1-yl]-6-(4-morpholinyl)-1,3,5-triazin-2-yl]amino}-2-pyridinyl)methanesulfonamide], for which the melting point is 302 to 306 °C. In the data set on NZB5 (Homo sapiens, NZB5), the IC50 fell in the range of 100 to 1000 nM. Also, the IC50 on p110δ/p85 was below 100 nM. Also, in the data set on NZOV9 (Homo sapiens, NZOV9), the IC50 is below 100 nM. In addition, the IC50 on p110α/p85 is below 100 nM.

`COc1cccc2c1nc(C(F)F)n2-c1nc(N2CCOCC2)nc(N2CCN(S(=O)(=O)C(F)(F)F)CC2)n1` [Example 86, 2-(difluoromethyl)-4-methoxy-1-(4-(4-morpholinyl)-6-{4-[(trifluoromethyl)-sulfonyl]-1-piperazinyl}-1,3,5-triazin-2-yl)-1H-benzimidazole] showed a melting point of 272 to 273 °C. Moreover, the IC50 at p110δ/p85 is above 1000 nM. The IC50 at p110α/p85 is 100 to 1000 nM.

For the molecule `COc1cccc2c1nc(C(F)F)n2-c1nc(N2CCOCC2)nc(N(CCCN(C)C)C2CCN(S(=O)(=O)CCl)CC2)n1` [Example 59, N^1-{1-[(chloromethyl)sulfonyl]-4-piperidinyl}-N^1-[4-[2-(difluoromethyl)-4-methoxy-1H-benzimidazol-1-yl]-6-(4-morpholinyl)-1,3,5-triazin-2-yl]-N^3,N^3-dimethyl-1,3-propanediamine], the IC50 on p110β/p85 is above 1000 nM.

The molecule `COc1cccc2c1nc(C(F)F)n2-c1nc(N2CCOCC2)nc(N2CCC(NS(=O)(=O)CCl)CC2)n1` [Example 61, chloro-N-{1-[4-[2-(difluoromethyl)-4-methoxy-1H-benzimidazol-1-yl]-6-(4-morpholinyl)-1,3,5-triazin-2-yl]-4-piperidinyl}methanesulfonamide] registered a melting point of 230 to 232 °C. The IC50 at p110δ/p85 was below 100 nM. Besides, on p110α/p85, the IC50 was below 100 nM.

As for `CN(C)CCCOc1cccc2c1nc(C(F)F)n2-c1nc(OC2CCN(S(C)(=O)=O)CC2)nc(N2CCOCC2)n1` [Example 7, N-[3-({2-(difluoromethyl)-1-[4-{[1-(methylsulfonyl)-4-piperidinyl]oxy}-6-(4-morpholinyl)-1,3,5-triazin-2-yl]-1H-benzimidazol-4-yl}oxy)propyl]-N,N-dimethylamine], the IC50 in the data set on NZB5 (Homo sapiens, NZB5) is 100 to 1000 nM; in the data set on NZOV9 (Homo sapiens, NZOV9) it was 100 to 1000 nM; at p110β/p85 it was above 1000 nM.

`C=CS(=O)(=O)N1CCN(c2nc(N3CCOCC3)nc(-n3c(C(F)F)nc4c(OC)cccc43)n2)CC1` [Example 3, 2-(difluoromethyl)-4-methoxy-1-{4-(4-morpholinyl)-6-[4-(vinylsulfonyl)-1-piperazinyl]-1,3,5-triazin-2-yl}-1H-benzimidazole] returned a melting point of 242 to 244 °C. In the data set with NZB5 (Homo sapiens, NZB5), the IC50 is 100 to 1000 nM. In addition, the IC50 on p110δ/p85 was below 100 nM. In the data set on NZOV9 (Homo sapiens, NZOV9), the IC50 was below 100 nM. Besides, the IC50 on p110β/p85 was below 100 nM. Besides, the IC50 on p110α/p85 was below 100 nM.

With `FC(F)c1nc2ccccc2n1-c1nc(N2CCOCC2)nc(N2CCOCC2)n1` [ZSTK474], the PI3K isoform selectivity entry in the data set with PI3K is reported as “non-selective”.

Regarding `Cc1cc(C(C)Nc2ccccc2)c2nc(N3CCOCC3)cc(=O)n2c1` (stereo not shown) [TGX221], the PI3K isoform selectivity result with PI3K was “β-selective”.

With `COc1cccc2c1nc(C(F)F)n2-c1nc(Nc2ccc(N(C)S(C)(=O)=O)nc2)nc(N2CCOCC2)n1` [Example 101, N-(5-{[4-[2-(difluoromethyl)-4-methoxy-1H-benzimidazol-1-yl]-6-(4-morpholinyl)-1,3,5-triazin-2-yl]amino}-2-pyridinyl)-N-methylmethanesulfonamide], the melting point was 250 to 253 °C. For the same molecule, the IC50 in the data set with NZB5 (Homo sapiens, NZB5) was below 100 nM. Also, at p110δ/p85, the IC50 is below 100 nM. For the same molecule, in the data set on NZOV9 (Homo sapiens, NZOV9), the IC50 is below 100 nM. Besides, the IC50 at p110β/p85 is 100 to 1000 nM. In addition, the IC50 at p110α/p85 was below 100 nM.

For the molecule `Oc1cccc(-c2nc(N3CCOCC3)c3oc4ncccc4c3n2)c1` [PI103], the PI3K isoform selectivity entry in the data set on PI3K is recorded as “slightly α-selective”.

In turn, `COc1cccc2c1nc(C(F)F)n2-c1nc(N2CCOCC2)nc(N2CCC(NS(=O)(=O)C(F)(F)F)CC2)n1` [Example 87, N-{1-[4-[2-(difluoromethyl)-4-methoxy-1H-benzimidazol-1-yl]-6-(4-morpholinyl)-1,3,5-triazin-2-yl]-4-piperidinyl}trifluoromethanesulfonamide] yielded a melting point of 282 to 285 °C. Besides, the IC50 at p110δ/p85 fell in the range of 100 to 1000 nM. Further, the IC50 on p110α/p85 is below 100 nM.

`COc1cccc2c1nc(C(F)F)n2-c1nc(N2CCOCC2)cc(N(C)C2CCN(S(C)(=O)=O)CC2)n1` [Example 6, 2-[2-(difluoromethyl)-4-methoxy-1H-benzimidazol-1-yl]-N-methyl-N-[1-(methylsulfonyl)-4-piperidinyl]-6-(4-morpholinyl)-4-pyrimidinamine] registered a melting point of 191 to 193 °C. For the same molecule, the IC50 in the data set with NZB5 (Homo sapiens, NZB5) lay in the range of 100 to 1000 nM. Further, the IC50 on p110δ/p85 is below 100 nM. For the same molecule, the IC50 with NZOV9 (Homo sapiens, NZOV9) is below 100 nM. Besides, the IC50 at p110β/p85 was below 100 nM. Also, at p110α/p85, the IC50 was below 100 nM.

With `Cc1ccccc1-n1c(Cn2cnc3c(N)ncnc32)nc2cccc(C)c2c1=O` [IC87114], the PI3K isoform selectivity result with PI3K is listed as “δ-selective”.

Take “N-{(3S)-1-[4-[2-(difluoromethyl)-4-methoxy-1H-benzimidazol-1-yl]-6-(4-morpholinyl)-1,3,5-triazin-2-yl]piperidinyl}-N-[3-(dimethylamino)propyl]methane-sulfonamide [Example 63]”: the IC50 in the data set with NZB5 is 100 to 1000 nM; on p110δ/p85, 100 to 1000 nM; in the data set on NZOV9, 100 to 1000 nM; at p110β/p85, above 1000 nM; at p110α/p85, 100 to 1000 nM.

As to `O=c1cc(N2CCOCC2)oc2c(-c3ccccc3)cccc12` [LY294002], in the data set with human tumor xenografts, the tolerability entry is recorded as “well-tolerated”.
